We go through 3 molecules from ChEMBL document CHEMBL1136389, “Structure-activity relationship of a novel class of naphthyl amide KATP channel openers” (Bioorg Med Chem Lett, 2003).

The test system of test [1] is Rattus norvegicus. In words: In vivo concentration required for the reduction of mean arterial pressure in anesthetized obstructed male rat, administered intravenously at a dose of 50 nM/Kg. It counts as functional, Artery.
Test [2] has as its system Rattus norvegicus. In words: In vivo concentration required for the inhibition of unstable contraction in anesthetized obstructed male rat, administered intravenously at a dose of 30 nM/Kg. Type of test: functional.
Test [3] in a line: Selectivity ratio for the reduction of mean arterial pressure to that of unstable […] in anesthetized obstructed male rat. It counts as functional, Artery.
The test system of test [4] is Rattus norvegicus. In words: In vivo concentration required for the 10% reduction of mean arterial pressure in anesthetized obstructed male rat, administered intravenously at a dose of 50 nM/Kg. Type of test: functional, Artery.

In the case of `CCc1cc(C#N)ccc1Nc1c(N[C@H](C)C(C)(C)C)c(=O)c1=O`, in the test with Rattus norvegicus [1], the ED10 was 0.12 µM/kg. The molecule also came in with an ED35 in the test on Rattus norvegicus [2] of 0.1 µM/kg. Moreover, the Selectivity ratio in test [3] was found to be 1.2.
As to `CC(=O)Nc1c(C(O)(C(F)(F)F)C(F)(F)F)ccc2ccccc12`, the ED10 in the test with Rattus norvegicus [4] came out at 0.05 µM/kg. This molecule registered an ED35 with Rattus norvegicus [2] of 0.03 µM/kg. Also, the Selectivity ratio in test [3] is given as 1.7.
For `C[C@](O)(C(=O)Nc1ccc(C(=O)c2ccccc2)cc1)C(F)(F)F` [ZD-6169], the ED10 with Rattus norvegicus [1] is 1.5 µM/kg. The molecule further showed an ED35 in the test with Rattus norvegicus [2] of 1.4 µM/kg. Further, the Selectivity ratio in test [3] stood at 1.1.
